# Test results from patent US20190060298A1, “NEW DRUG FOR THE TREATMENT AND/OR PREVENTION OF DEPRESSIVE DISORDERS” (SORBONNE UNIVERSITE, priority 2013, published 2019).
# What was measured:
# HPA axis = assay: Activity of the HPA (corticotropic) axis; assay type: in vivo, Sprague-Dawley rats; conditions: vulnerable animals vs vulnerable animals treated with vehicle
# Procedure: Tempol (4-hydroxy-2,2,6,6-tetramethylpiperidine 1-oxyl), which was administered at a dose of 288 μmol/kg/day [Sigma-Aldrich, St Louis, Mo., USA]), was dissolved in distilled water and delivered via ALZET osmotic mini-pumps (2002, Charles River Laboratories, France). Tempol- or distilled water-filled pumps were implanted subcutaneously on the back of intruder rats under light anesthesia with isofluorane, 11 days after completion of the social-defeat procedure (D11), and were left in place for 15 days.
# When the rats were killed (at D57), blood from trunk vessels was collected into chilled tubes and corticosterone was quantified by RIA (ICN Biomedicals, Orsay, France), using [125I]corticosterone as a radiotracer (Andre et al., 2005). Adrenal glands were removed, dissected free of adhering fat, and weighed. Organ weights are expressed relative to body weights (mg gland/100 g body weight). Rats were decapitated at midday in a quiet separate room, one by one, with the bench cleaned between rats.
# Nrf2-null mice = assay: Depression-like phenotype of Nrf2-null mice after CMS; assay type: in vivo; conditions: Nrf2-null mice after three weeks of CMS; Tempol 288 μmol/kg/day from one week before CMS to end
# Procedure: Nrf2-null mice were backcrossed onto the C57BL/6 J background for seven generations using alternating male and female stock mice from the CNRS TAAM UPS44 (Orléans). The resulting wild-type (Nrf2+/+) and Nrf2−/− mice were genotyped and only male mice at 6 weeks old at the beginning of the experiments were used. The level of oxidative stress in mice was first evaluated through the measure of lipid peroxidation. Lipid peroxidation was assessed by measuring TBARS formation with a commercial assay kit (Cayman Chemical, Ann Arbor, Mich., USA), in accordance with the manufacturer's instructions. TBARS concentration was calculated from an MDA standard curve and normalized.
# To examine the depression-like phenotype of Nrf2-null mice, the helplessness behaviour, anhedonia and HPA hyperactivity (corticosterone, and adrenal gland weight) were assessed before and after a chronic mild stress (CMS) protocol. The neuroanatomical morphology of hippocampus in mice was estimated using Golgi Staining procedure. Tempol (4-hydroxy-2,2,6,6-tetramethylpiperidine 1-oxyl, Sigma-Aldrich, St Louis, Mo., USA), which was administered at a dose of 288 μmol/kg/day (Wilcox, 2010), was dissolved in distilled water and delivered via ALZET osmotic mini-pumps (1004, Charles River Laboratories, France). […]
smiles,measurement,setting,value
"CC1(C)CC(O)CC(C)(C)N1[O] [TEMPOL, 4-hydroxy-2,2,6,6-tetramethylpiperidin-1-oxyl]",adrenal gland weight,HPA axis,prevented the increase
same,corticosterone levels,HPA axis,prevented the increase of corticosterone levels
same,"depression-like phenotype (helplessness behaviour, anhedonia, HPA hyperactivity)",Nrf2-null mice,prevented
